Laboratory results as given in patent US9072791B2, “Photostabilized pharmaceutical compositions” (DENKI KAGAKU KOGYO KABUSHIKI KAISHA, priority 2008, dated 2015).

Key:
[1] = Photostability test in glass vials not shielded from light: gelation, molecular weight, percent conjugation of MTX (Example 4(2)); type: physicochemical; conditions: not shielded from light; for Molecular weight (×10^4), irradiation time 0 h / Molecular weight (×10^4), irradiation time 25 h / Molecular weight (×10^4), irradiation time 50 h / Molecular weight (×10^4), irradiation time 100 h / Molecular weight (×10^4), irradiation time 150 h / Molecular weight (×10^4), irradiation time 300 h / Percent Conjugation (%) of MTX, irradiation time 0 h / Percent Conjugation (%) of MTX, irradiation time 25 h / Percent Conjugation (%) of MTX, irradiation time 50 h / Percent Conjugation (%) of MTX, irradiation time 100 h / Percent Conjugation (%) of MTX, irradiation time 150 h / Percent Conjugation (%) of MTX, irradiation time 300 h: 4000 Lux, 25° C.
Experimental: Various photostabilizers (methyl p-hydroxybenzoate (methyl paraben), salicylic acid Na, thiosulfuric acid Na, thioglycolic acid Na, N-acetyltryptophan, and tryptophan) were each dissolved in a preparation buffer (0.9% NaCl containing 2 mM phosphate buffer, pH 7.4) to give a concentration of 1 or 10 mg/ml and thereafter filtered aseptically by passage through a 0.2-μm filter (Millex GV). A powder of the HA-MTX conjugate prepared in accordance with Production 1 was metered aseptically and dissolved in the filtered, photostabilizer-containing preparation buffer to give a concentration of 10 mg/mL; the thus prepared solutions were used as test samples. To prepare a control solution, the HA-MTX conjugate was dissolved in a photostabilizer-free preparation buffer at a concentration of 10 mg/mL.
The thus prepared solutions were put into glass vials not shielded from light and then irradiated with light.
The irradiation was so performed as to give an illuminance of 4000 Lux at 25° C. from a fluorescent lamp for use in a photostability test (TOSHIBA FL20S•D-EDL-D65) by means of a photostability tester (ETAC LABONIC LA110). After the lapse of specified periods (0 h, 25 h, 50 h, 100 h, 150 h, and 300 h) of irradiation, samples were taken and not only checked for gelation but also measured for the molecular weight of the HA-MTX conjugate and the percent conjugation of MTX (in the HA-MTX conjugate).
To evaluate the degree of gelation, the surface of each sample solution was pierced with a spatula and visually checked for the formation of an interface as the result of gelation. […] The apparatus used in gel filtration chromatography was equipped with OHpackSB-806HQ (Shodex) as a column, RI-71 (Shodex) as an […], and 875-UV (JASCO, detection wavelength: 304 nm) as a UV detector and analysis was conducted under the following conditions. Eluent: 50 mM sodium phosphate aqueous solution (pH 6.0); elution rate: 0.6 mL/min; column temperature: 40° C. By the above-described gel filtration chromatography, the elution times of the conjugate of interest were determined and the molecular weight of the same conjugate was determined from the relationship between the elution times and molecular weights of standard substances. As the standard substances, hyaluronic acid samples were prepared in varying molecular weights and their accurate values were calculated by the limiting viscosity method before it was used.

[2] = Photostability test with additional light-shielding film LUMICOOL 1905 (Example 6); type: physicochemical; conditions: vial wrapped with LUMICOOL 1905;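 note: molecular weight and drug conjugation percentage of the test conjugate, both determined by the method given for the first production procedure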

| SMILES | Molecular weight (×10^4), irradiation time 0 h ([1]; additive 1 mg/ml) | Molecular weight (×10^4), irradiation time 25 h ([1]; additive 1 mg/ml) | Molecular weight (×10^4), irradiation time 50 h ([1]; additive 1 mg/ml) | Molecular weight (×10^4), irradiation time 100 h ([1]; additive 1 mg/ml) | Molecular weight (×10^4), irradiation time 150 h ([1]; additive 1 mg/ml) | Molecular weight (×10^4), irradiation time 300 h ([1]; additive 1 mg/ml) | Percent Conjugation (%) of MTX, irradiation time 0 h ([1]; additive 1 mg/ml) [%] | Percent Conjugation (%) of MTX, irradiation time 25 h ([1]; additive 1 mg/ml) [%] | Percent Conjugation (%) of MTX, irradiation time 50 h ([1]; additive 1 mg/ml) [%] | Percent Conjugation (%) of MTX, irradiation time 100 h ([1]; additive 1 mg/ml) [%] | Percent Conjugation (%) of MTX, irradiation time 150 h ([1]; additive 1 mg/ml) [%] | Percent Conjugation (%) of MTX, irradiation time 300 h ([1]; additive 1 mg/ml) [%] | Molecular weight (×10^4), irradiation time 0 h ([1]; additive 10 mg/ml) | Molecular weight (×10^4), irradiation time 25 h ([1]; additive 10 mg/ml) | Molecular weight (×10^4), irradiation time 50 h ([1]; additive 10 mg/ml) | Molecular weight (×10^4), irradiation time 100 h ([1]; additive 10 mg/ml) | Molecular weight (×10^4), irradiation time 150 h ([1]; additive 10 mg/ml) | Molecular weight (×10^4), irradiation time 300 h ([1]; additive 10 mg/ml) | Percent Conjugation (%) of MTX, irradiation time 0 h ([1]; additive 10 mg/ml) [%] | Percent Conjugation (%) of MTX, irradiation time 25 h ([1]; additive 10 mg/ml) [%] | further results |
| --- | --- | --- | --- | --- | --- | --- | --- | --- | --- | --- | --- | --- | --- | --- | --- | --- | --- | --- | --- | --- | --- |
| N[C@@H](Cc1c[nH]c2ccccc12)C(=O)O [Tryptophan, tryptophan] | 188 ×10^4 | 171 ×10^4 | 138 ×10^4 | 112 ×10^4 | 83 ×10^4 | 45 ×10^4 | 2.2 | 2.2 | 2.2 | 2.2 | 2.1 | 2.2 | 181 ×10^4 | 175 ×10^4 | 164 ×10^4 | 118 ×10^4 | 110 ×10^4 | 70 ×10^4 | 2.2 | 2.3 | suppressing drops in the molecular weight and percent conjugation ([1]; added at 1 mg/mL): could suppress drops in the molecular weight and percent conjugation for irradiation periods that did not exceed about 100 hours; Percent Conjugation (%) of MTX, irradiation time 50 h ([1]; additive 10 mg/ml): 2.2%; Percent Conjugation (%) of MTX, irradiation time 100 h ([1]; additive 10 mg/ml): 2.2%; Percent Conjugation (%) of MTX, irradiation time 150 h ([1]; additive 10 mg/ml): 2.2%; Percent Conjugation (%) of MTX, irradiation time 300 h ([1]; additive 10 mg/ml): 2.2%; Molecular weight (×10^4), irradiation time 0 h ([2]; additive 1 mg/mL): 188 ×10^4; Molecular weight (×10^4), irradiation time 150 h ([2]; additive 1 mg/mL): 176 ×10^4; Molecular weight (×10^4), irradiation time 300 h ([2]; additive 1 mg/mL): 153 ×10^4; Percent Conjugation (%), irradiation time 0 h ([2]; additive 1 mg/mL): 2.2%; Percent Conjugation (%), irradiation time 150 h ([2]; additive 1 mg/mL): 2.2%; Percent Conjugation (%), irradiation time 300 h ([2]; additive 1 mg/mL): 2.2%; Molecular weight (×10^4), irradiation time 0 h ([2]; additive 10 mg/mL): 181 ×10^4; Molecular weight (×10^4), irradiation time 150 h ([2]; additive 10 mg/mL): 177 ×10^4; Molecular weight (×10^4), irradiation time 300 h ([2]; additive 10 mg/mL): 156 ×10^4; Percent Conjugation (%), irradiation time 0 h ([2]; additive 10 mg/mL): 2.2%; Percent Conjugation (%), irradiation time 150 h ([2]; additive 10 mg/mL): 2.2%; Percent Conjugation (%), irradiation time 300 h ([2]; additive 10 mg/mL): 2.2% |
| CC(=O)N[C@@H](Cc1c[nH]c2ccccc12)C(=O)O [N-acetyltryptophan] | 178 ×10^4 | 164 ×10^4 | 166 ×10^4 | 138 ×10^4 | 128 ×10^4 | 78 ×10^4 | 2.2 | 2.2 | 2.3 | 2.2 | 2.1 | 2.1 | 190 ×10^4 | 180 ×10^4 | 175 ×10^4 | 146 ×10^4 | 135 ×10^4 | 97 ×10^4 | 2.2 | 2.2 | suppressing drops in the molecular weight and percent conjugation ([1]; added at 1 mg/mL): could suppress drops in the molecular weight and percent conjugation for irradiation periods that did not exceed about 100 hours; Percent Conjugation (%) of MTX, irradiation time 50 h ([1]; additive 10 mg/ml): 2.2%; Percent Conjugation (%) of MTX, irradiation time 100 h ([1]; additive 10 mg/ml): 1.9%; Percent Conjugation (%) of MTX, irradiation time 150 h ([1]; additive 10 mg/ml): 2.1%; Percent Conjugation (%) of MTX, irradiation time 300 h ([1]; additive 10 mg/ml): 2.0%; Molecular weight (×10^4), irradiation time 0 h ([2]; additive 1 mg/mL): 178 ×10^4; Molecular weight (×10^4), irradiation time 150 h ([2]; additive 1 mg/mL): 172 ×10^4; Molecular weight (×10^4), irradiation time 300 h ([2]; additive 1 mg/mL): 136 ×10^4; Percent Conjugation (%), irradiation time 0 h ([2]; additive 1 mg/mL): 2.2%; Percent Conjugation (%), irradiation time 150 h ([2]; additive 1 mg/mL): 2.3%; Percent Conjugation (%), irradiation time 300 h ([2]; additive 1 mg/mL): 2.2%; Molecular weight (×10^4), irradiation time 0 h ([2]; additive 10 mg/mL): 190 ×10^4; Molecular weight (×10^4), irradiation time 150 h ([2]; additive 10 mg/mL): 186 ×10^4; Molecular weight (×10^4), irradiation time 300 h ([2]; additive 10 mg/mL): 187 ×10^4; Percent Conjugation (%), irradiation time 0 h ([2]; additive 10 mg/mL): 2.2%; Percent Conjugation (%), irradiation time 150 h ([2]; additive 10 mg/mL): 2.2%; Percent Conjugation (%), irradiation time 300 h ([2]; additive 10 mg/mL): 2.2% |
| O=C([O-])CS.[Na+] [Na thioglycolate, sodium thioglycolate] | 163 ×10^4 | 136 ×10^4 | 97 ×10^4 | 8 ×10^4 | 5 ×10^4 | 2 ×10^4 | 2.1 | 2.2 | 2.2 | 1.4 | 1.0 | 0.4 | 181 ×10^4 | 166 ×10^4 | 169 ×10^4 | 163 ×10^4 | 154 ×10^4 | 5 ×10^4 | 2.1 | 2.2 | suppressing drops in the molecular weight and percent conjugation ([1]; added at 10 mg/ml): considerably effective in suppressing drops in the molecular weight and percent conjugation even when the time of irradiation exceeded 100 hours; Percent Conjugation (%) of MTX, irradiation time 50 h ([1]; additive 10 mg/ml): 2.3%; Percent Conjugation (%) of MTX, irradiation time 100 h ([1]; additive 10 mg/ml): 2.0%; Percent Conjugation (%) of MTX, irradiation time 150 h ([1]; additive 10 mg/ml): 2.2%; Percent Conjugation (%) of MTX, irradiation time 300 h ([1]; additive 10 mg/ml): 1.4%; Molecular weight (×10^4), irradiation time 0 h ([2]; additive 1 mg/mL): 163 ×10^4; Molecular weight (×10^4), irradiation time 150 h ([2]; additive 1 mg/mL): 123 ×10^4; Molecular weight (×10^4), irradiation time 300 h ([2]; additive 1 mg/mL): 44 ×10^4; Percent Conjugation (%), irradiation time 0 h ([2]; additive 1 mg/mL): 2.1%; Percent Conjugation (%), irradiation time 150 h ([2]; additive 1 mg/mL): 2.2%; Percent Conjugation (%), irradiation time 300 h ([2]; additive 1 mg/mL): 2.2%; Molecular weight (×10^4), irradiation time 0 h ([2]; additive 10 mg/mL): 181 ×10^4; Molecular weight (×10^4), irradiation time 150 h ([2]; additive 10 mg/mL): 170 ×10^4; Molecular weight (×10^4), irradiation time 300 h ([2]; additive 10 mg/mL): 157 ×10^4; Percent Conjugation (%), irradiation time 0 h ([2]; additive 10 mg/mL): 2.1%; Percent Conjugation (%), irradiation time 150 h ([2]; additive 10 mg/mL): 2.1%; Percent Conjugation (%), irradiation time 300 h ([2]; additive 10 mg/mL): 2.2% |
